This experiment deals with Escherichia coli. Description: Minimal Inhibitory Concentration (MIC), two-fold dilution series in 96 well microplate. It counts as cell-based. Particulars: for MIC (QA), used alone: first biocide used alone. The text has this: While there are various methods known to individuals skilled in the art for measuring levels of antimicrobial activity, in the following examples the endpoint used is known as the Minimal Inhibitory Concentration, or MIC. This is the lowest concentration of a substance or substances which can achieve complete inhibition of growth.
In order to determine the Minimal Inhibitory Concentration, a two-fold dilution series of the biocide is constructed with the dilutions being made in growth media. The dilutions are made in a 96 well microplate such that each well has a final volume of 280 μl of media and biocide. The first well has, for example, a concentration of 1000 ppm biocide, the second 500 ppm, the third 250 ppm, and so forth, with the 12th and final well in the row having no biocide at all and serving as a positive growth control. After the dilution series is constructed the wells receive an inoculum of microbe suspended in growth media such that the final concentration of microbes in the well is ˜5×10^5 cfu/ml. In these examples the test microbe used is Escherichia coli. The cultures are incubated at an appropriate temperature for 18-24 hours, and the wells scored as positive or negative for growth based on a visual examination for turbid wells.

[1] abbreviates: Escherichia coli, second biocide used alone, complete inhibition of growth, 18-24 hours, read-out: MIC (QB), used alone.
[2] abbreviates: Escherichia coli, used alone, Table 26.
Setting [3] is: complete inhibition of growth, 18-24 hours.
Where [4] appears, read: second biocide used alone, complete inhibition of growth, 18-24 hours.

In brackets after ≈: the same amount, converted by molar mass. Where two headings read alike, the source gives them in different places.

One may read the MIC as the smallest concentration in the dilution series that meets the test's criterion for growth inhibition. For `O=CCCCC=O` [GLUT, glutaraldehyde], the MIC is, setting by setting: under setting [1], 45 µg/mL (≈ 449 µM); (Escherichia coli, used alone, Table 28, read-out: GLUT MIC (QB), used alone) 45 µg/mL (≈ 449 µM).

For the molecule `N#CC(Br)(Br)C(N)=O` [DBNPA, 2,2-dibromo-3-nitrilopropionamide], under setting [1], the MIC was determined as 11 µg/mL (≈ 45.5 µM). On the same count and under the same terms, in the case of `CC1(C)C(=O)N(Cl)C(=O)N1Br` [BCDMH, 1-bromo-3-chloro-5,5-dimethylhydantoin] it was 61 µg/mL (≈ 253 µM). Regarding `CNC(=O)N(C)Cl` [DMCU, dimethyl monochlorourea], the “DMCU MIC (QA), used alone” value is given as 10 ppm under setting [2]; 10 ppm (Escherichia coli, used alone, Table 27); 10 ppm (Escherichia coli, used alone, Table 28). Also, the “MIC (QA), used alone” value under setting [3] was found to be 10 ppm. Moreover, under setting [4], the “MIC (QB), used alone” value stood at 10 ppm. `OO` [H2O2, hydrogen peroxide]: the “MIC (QB), used alone” value under setting [4] was determined as 1000 ppm. On the same count and under the same terms, in the case of methyl monochlorourea [MMCU] it was 16 ppm. On to `O=[N+]([O-])C(Br)(CO)CO` [BNPD, 2-bromo-2-nitropropane-1,3,-diol], for which the “MIC (QB), used alone” value under setting [4] worked out at 24 ppm. Regarding `NCl` [MCA, monochloramine], the “MIC (QB), used alone” value under setting [4] is 47 ppm. Turning to “N-alkyl (C12-C16)-N,N-dimethyl benzylalkonium chloride [QAC]”, under setting [2], the “QAC MIC (QB), used alone” value was 27 ppm. Under setting [4], the “MIC (QB), used alone” value is 27 ppm.

On to `NC(=O)NCl` [MCU, monochlorourea], for which, under setting [3], the “MIC (QA), used alone” value came out at 100 ppm. Also, the “MIC (QB), used alone” value under setting [4] amounted to 100 ppm. In the case of `N#CSCSC#N` [MBT, methylene bisthiocyanate], the MIC (Escherichia coli, read-out: MIC (QB), used alone) worked out at 8 µg/mL (≈ 61.4 µM).

Source of the values: patent publication US20150132405A1, “SYNERGISTIC COMPOSITIONS OF MONOCHLOROUREA AND MODIFIED MONOCHLOROUREAS” (HERCULES INCORPORATED, priority 2013, published 2015).
